Starred links: 1 amine or outer side, 2 acyl side, 3 side chain; linkers in the order of their positions; H or OH if unused. Non-standard residues stand in square brackets, D forms with d. Residues, ends and D or L forms follow the SMILES beside them. β3hPhe(2R-OH) = O=C([C@H](O)[C@H](Cc1ccccc1)N[*:1])[*:2]; X1 = CC(C)C[C@H](N[*:1])[C@@H](O)C(=O)[*:2]
Target: T1, Beta-secretase 1 (Homo sapiens, UniProt P56817)
Assay: Inhibitory activity against Beta-secretase 1 was determined

T1 sequence (P56817 whole entry): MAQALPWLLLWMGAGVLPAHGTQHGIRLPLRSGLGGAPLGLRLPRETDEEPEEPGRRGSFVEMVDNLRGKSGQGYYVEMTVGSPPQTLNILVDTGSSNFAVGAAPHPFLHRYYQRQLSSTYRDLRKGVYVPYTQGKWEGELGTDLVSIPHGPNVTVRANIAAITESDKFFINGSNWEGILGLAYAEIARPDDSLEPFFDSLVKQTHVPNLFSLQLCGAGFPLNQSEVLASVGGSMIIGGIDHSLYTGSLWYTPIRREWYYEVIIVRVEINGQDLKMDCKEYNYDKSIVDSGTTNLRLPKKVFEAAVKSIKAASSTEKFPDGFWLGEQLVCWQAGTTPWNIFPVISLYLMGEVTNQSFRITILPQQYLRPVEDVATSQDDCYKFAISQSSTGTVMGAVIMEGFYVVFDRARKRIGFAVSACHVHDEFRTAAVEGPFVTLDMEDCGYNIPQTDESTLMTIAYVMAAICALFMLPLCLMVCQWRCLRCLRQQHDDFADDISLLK

With `CC(C)C[C@H](NC(=O)[C@@H](NC(=O)[C@@H](N)CCC(=O)O)C(C)C)C(=O)N[C@@H](Cc1ccccc1)[C@@H](O)C(=O)N[C@@H](CC(=O)O)C(=O)N[C@@H](C)C(=O)N[C@@H](CCC(=O)O)C(=O)N[C@@H](Cc1ccccc1)C(=O)O` [HGLUVALLEUPNSASPALAGLUPHEOH] the IC50 was 413 nM.

Target: T1, Beta-secretase 1
Assay: Inhibition of beta-secretase 1 (BACE) was determined at the concentration of 2 uM

`CC(C)C[C@H](NC(=O)[C@@H](NC(=O)[C@@H](N)CCC(=O)O)C(C)C)C(=O)N[C@@H](Cc1ccccc1)[C@@H](O)C(=O)N1CSC(C)(C)C1C(=O)N[C@@H](C)C(=O)N[C@@H](CCC(=O)O)C(=O)N[C@@H](Cc1ccccc1)C(=O)O` (some centres not stated) and `CC(C)C[C@H](NC(=O)[C@@H](NC(=O)[C@@H](N)CCC(=O)O)C(C)C)C(=O)N[C@H](Cc1ccccc1)[C@@H](O)C(=O)N1CSC(C)(C)C1C(=O)N[C@@H](C)C(=O)N[C@@H](CCC(=O)O)C(=O)N[C@@H](Cc1ccccc1)C(=O)O` (some centres not stated) are the same in inhibition: 34% for the first, 34% for the second.

First: CC(C)C[C@H](NC(=O)[C@@H](NC(=O)[C@@H](N)CCC(=O)O)C(C)C)C(=O)N[C@@H](Cc1ccccc1)[C@@H](O)C(=O)N[C@@H](C)C(=O)N[C@@H](C)C(=O)N[C@@H](CCC(=O)O)C(=O)N[C@@H](Cc1ccccc1)C(=O)O
Second: CC(C)C[C@H](NC(=O)[C@@H](NC(=O)[C@@H](N)CCC(=O)O)C(C)C)C(=O)N[C@H](Cc1ccccc1)[C@@H](O)C(=O)N[C@@H](C)C(=O)N[C@@H](C)C(=O)N[C@@H](CCC(=O)O)C(=O)N[C@@H](Cc1ccccc1)C(=O)O
The inhibition of the first is higher: 53% for the first, under 20% for the second.

First: CC(C)C[C@H](NC(=O)[C@@H](NC(=O)[C@@H](N)CCC(=O)O)C(C)C)C(=O)N[C@@H](Cc1ccccc1)[C@@H](O)C(=O)N[C@@H](CC(N)=O)C(=O)N[C@@H](C)C(=O)N[C@@H](CCC(=O)O)C(=O)N[C@@H](Cc1ccccc1)C(=O)O
Second: CC(C)C[C@H](NC(=O)[C@@H](NC(=O)[C@@H](N)CCC(=O)O)C(C)C)C(=O)N[C@H](Cc1ccccc1)[C@@H](O)C(=O)N[C@@H](CC(N)=O)C(=O)N[C@@H](C)C(=O)N[C@@H](CCC(=O)O)C(=O)N[C@@H](Cc1ccccc1)C(=O)O
The inhibition of the first is higher: 54% for the first, 22% for the second.

Compared with `CC(C)C[C@H](NC(=O)[C@@H](NC(=O)[C@@H](N)CCC(=O)O)C(C)C)C(=O)N[C@@H](Cc1ccccc1)[C@@H](O)C(=O)N[C@@H](CCC(=O)O)C(=O)N[C@@H](C)C(=O)N[C@@H](CCC(=O)O)C(=O)N[C@@H](Cc1ccccc1)C(=O)O`, `CC(C)C[C@H](NC(=O)[C@@H](NC(=O)[C@@H](N)CCC(=O)O)C(C)C)C(=O)N[C@H](Cc1ccccc1)[C@@H](O)C(=O)N[C@@H](CCC(=O)O)C(=O)N[C@@H](C)C(=O)N[C@@H](CCC(=O)O)C(=O)N[C@@H](Cc1ccccc1)C(=O)O` is lower in inhibition: 64% for the first, 47% for the second.

First: CC(C)C[C@H](NC(=O)[C@@H](NC(=O)[C@@H](N)CCC(=O)O)C(C)C)C(=O)N[C@@H](Cc1ccccc1)[C@@H](O)C(=O)N[C@@H](CCC(N)=O)C(=O)N[C@@H](C)C(=O)N[C@@H](CCC(=O)O)C(=O)N[C@@H](Cc1ccccc1)C(=O)O
Second: CC(C)C[C@H](NC(=O)[C@@H](NC(=O)[C@@H](N)CCC(=O)O)C(C)C)C(=O)N[C@H](Cc1ccccc1)[C@@H](O)C(=O)N[C@@H](CCC(N)=O)C(=O)N[C@@H](C)C(=O)N[C@@H](CCC(=O)O)C(=O)N[C@@H](Cc1ccccc1)C(=O)O
The inhibition of the first is higher: 41% for the first, 33% for the second.

Going from `CC(C)C[C@H](NC(=O)[C@@H](NC(=O)[C@@H](N)CCC(=O)O)C(C)C)C(=O)N[C@H](Cc1ccccc1)[C@@H](O)C(=O)N[C@@H](CC(=O)O)C(=O)N[C@@H](C)C(=O)N[C@@H](CCC(=O)O)C(=O)N[C@@H](Cc1ccccc1)C(=O)O` to `CC(C)C[C@H](NC(=O)[C@@H](NC(=O)[C@@H](N)CCC(=O)O)C(C)C)C(=O)N[C@@H](Cc1ccccc1)[C@@H](O)C(=O)N[C@@H](CC(=O)O)C(=O)N[C@@H](C)C(=O)N[C@@H](CCC(=O)O)C(=O)N[C@@H](Cc1ccccc1)C(=O)O` [HGLUVALLEUPNSASPALAGLUPHEOH], the inhibition rises from 66% to over 90%.

Compared with `CC[C@@H](C)[C@H](NC(=O)[C@@H](N)CCC(=O)O)C(=O)N[C@@H](CC(C)C)C(=O)N[C@@H](Cc1ccccc1)[C@@H](O)C(=O)N[C@@H](CC(=O)O)C(=O)N[C@@H](C)C(=O)N[C@@H](CCC(=O)O)C(=O)N[C@@H](Cc1ccccc1)C(=O)O`, `CC(C)C[C@H](NC(=O)[C@H](CC(C)C)NC(=O)[C@@H](N)CCC(=O)O)C(=O)N[C@@H](Cc1ccccc1)[C@@H](O)C(=O)N[C@@H](CC(=O)O)C(=O)N[C@@H](C)C(=O)N[C@@H](CCC(=O)O)C(=O)N[C@@H](Cc1ccccc1)C(=O)O` (H-ELL[β3hPhe(2R-OH)]DAEF-OH) is lower in inhibition: 26% for the first, under 20% for the second.

Going from `CC(C)C[C@H](NC(=O)[C@H](Cc1ccccc1)NC(=O)[C@@H](N)CCC(=O)O)C(=O)N[C@@H](Cc1ccccc1)[C@@H](O)C(=O)N[C@@H](CC(=O)O)C(=O)N[C@@H](C)C(=O)N[C@@H](CCC(=O)O)C(=O)N[C@@H](Cc1ccccc1)C(=O)O` (H-EFL[β3hPhe(2R-OH)]DAEF-OH) to `CC(C)C[C@H](NC(=O)[C@@H](NC(=O)[C@@H](N)CCC(=O)O)C(C)C)C(=O)N[C@@H](Cc1ccccc1)[C@@H](O)C(=O)N[C@@H](C)C(=O)N[C@@H](Cc1ccccc1)C(=O)N[C@@H](CCC(=O)O)C(=O)N[C@@H](Cc1ccccc1)C(=O)O` (H-EVL[β3hPhe(2R-OH)]AFEF-OH), the inhibition rises from under 20% to 60%.

Compared with `CSCC[C@H](NC(=O)[C@@H](N)CCC(=O)O)C(=O)N[C@@H](CC(C)C)C(=O)N[C@@H](Cc1ccccc1)[C@@H](O)C(=O)N[C@@H](CC(=O)O)C(=O)N[C@@H](C)C(=O)N[C@@H](CCC(=O)O)C(=O)N[C@@H](Cc1ccccc1)C(=O)O` (H-EML[β3hPhe(2R-OH)]DAEF-OH), `CSCC[C@H](NC(=O)[C@@H](NC(=O)[C@@H](N)CCC(=O)O)C(C)C)C(=O)N[C@@H](Cc1ccccc1)[C@@H](O)C(=O)N[C@@H](CC(=O)O)C(=O)N[C@@H](C)C(=O)N[C@@H](CCC(=O)O)C(=O)N[C@@H](Cc1ccccc1)C(=O)O` (H-EVM[β3hPhe(2R-OH)]DAEF-OH) is higher in inhibition: under 20% for the first, 42% for the second.

Going from `CC(C)[C@H](NC(=O)[C@@H](N)CCC(=O)O)C(=O)N[C@@H](CC(=O)O)C(=O)N[C@@H](Cc1ccccc1)[C@@H](O)C(=O)N[C@@H](CC(=O)O)C(=O)N[C@@H](C)C(=O)N[C@@H](CCC(=O)O)C(=O)N[C@@H](Cc1ccccc1)C(=O)O` (H-EVD[β3hPhe(2R-OH)]DAEF-OH) to `CC(C)[C@H](NC(=O)[C@@H](N)CCC(=O)O)C(=O)N[C@@H](CCC(=O)O)C(=O)N[C@@H](Cc1ccccc1)[C@@H](O)C(=O)N[C@@H](CC(=O)O)C(=O)N[C@@H](C)C(=O)N[C@@H](CCC(=O)O)C(=O)N[C@@H](Cc1ccccc1)C(=O)O` (H-EVE[β3hPhe(2R-OH)]DAEF-OH), the inhibition rises from 25% to 30%.

Compared with `CC(C)[C@H](NC(=O)[C@@H](N)CCC(=O)O)C(=O)N[C@@H](CCCCN)C(=O)N[C@@H](Cc1ccccc1)[C@@H](O)C(=O)N[C@@H](CC(=O)O)C(=O)N[C@@H](C)C(=O)N[C@@H](CCC(=O)O)C(=O)N[C@@H](Cc1ccccc1)C(=O)O` (H-EVK[β3hPhe(2R-OH)]DAEF-OH), `CC(C)[C@H](NC(=O)[C@@H](N)CCC(=O)O)C(=O)N[C@@H](CCC(N)=O)C(=O)N[C@@H](Cc1ccccc1)[C@@H](O)C(=O)N[C@@H](CC(=O)O)C(=O)N[C@@H](C)C(=O)N[C@@H](CCC(=O)O)C(=O)N[C@@H](Cc1ccccc1)C(=O)O` (H-EVQ[β3hPhe(2R-OH)]DAEF-OH) is higher in inhibition: under 20% for the first, 36% for the second.

Compared with `CC(C)C[C@H](NC(=O)[C@@H](NC(=O)[C@@H](N)CCC(=O)O)C(C)C)C(=O)N[C@@H](Cc1ccccc1)[C@@H](O)C(=O)N[C@@H](C)C(=O)N[C@@H](CCC(=O)O)C(=O)N[C@@H](CCC(=O)O)C(=O)N[C@@H](Cc1ccccc1)C(=O)O` (H-EVL[β3hPhe(2R-OH)]AEEF-OH), `CC(C)C[C@H](NC(=O)[C@@H](NC(=O)[C@@H](N)CCC(=O)O)C(C)C)C(=O)N[C@@H](Cc1ccccc1)[C@@H](O)C(=O)N[C@@H](CC(=O)O)C(=O)N[C@@H](C)C(=O)N[C@@H](CCC(N)=O)C(=O)N[C@@H](Cc1ccccc1)C(=O)O` (H-EVL[β3hPhe(2R-OH)]DAQF-OH) is lower in inhibition: 78% for the first, 56% for the second.

Compared with `CC(C)C[C@H](NC(=O)[C@H](C)NC(=O)[C@H](O)[C@H](Cc1ccccc1)NC(=O)[C@H](CC(C)C)NC(=O)[C@@H](NC(=O)[C@@H](N)CCC(=O)O)C(C)C)C(=O)N[C@@H](CCC(=O)O)C(=O)N[C@@H](Cc1ccccc1)C(=O)O` (H-EVL[β3hPhe(2R-OH)]ALEF-OH), `CC(C)C[C@H](NC(=O)[C@H](C)NC(=O)[C@H](CC(=O)O)NC(=O)[C@H](O)[C@H](Cc1ccccc1)NC(=O)[C@H](CC(C)C)NC(=O)[C@@H](NC(=O)[C@@H](N)CCC(=O)O)C(C)C)C(=O)N[C@@H](Cc1ccccc1)C(=O)O` (H-EVL[β3hPhe(2R-OH)]DALF-OH) is higher in inhibition: 41% for the first, 57% for the second.

Compared with `CC(C)C[C@H](NC(=O)[C@@H](NC(=O)[C@@H](N)CCC(=O)O)C(C)C)C(=O)N[C@@H](Cc1ccccc1)[C@@H](O)C(=O)N[C@@H](C)C(=O)N[C@H](C(=O)N[C@@H](CCC(=O)O)C(=O)N[C@@H](Cc1ccccc1)C(=O)O)C(C)C` (H-EVL[β3hPhe(2R-OH)]AVEF-OH), `CC(C)C[C@H](NC(=O)[C@@H](NC(=O)[C@@H](N)CCC(=O)O)C(C)C)C(=O)N[C@@H](Cc1ccccc1)[C@@H](O)C(=O)N[C@@H](CC(=O)O)C(=O)N[C@@H](C)C(=O)N[C@H](C(=O)N[C@@H](Cc1ccccc1)C(=O)O)C(C)C` (H-EVL[β3hPhe(2R-OH)]DAVF-OH) is higher in inhibition: 30% for the first, 57% for the second.

Going from `CC(C)C[C@H](NC(=O)[C@@H](NC(=O)[C@@H](N)CCC(=O)O)C(C)C)C(=O)N[C@@H](Cc1ccccc1)[C@@H](O)C(=O)N[C@@H](CC(=O)O)C(=O)N[C@@H](C)C(=O)N[C@@H](Cc1ccccc1)C(=O)N[C@@H](Cc1ccccc1)C(=O)O` (H-EVL[β3hPhe(2R-OH)]DAFF-OH) to `CC(C)[C@H](NC(=O)[C@@H](N)CCC(=O)O)C(=O)N[C@@H](CC(N)=O)C(=O)N[C@@H](Cc1ccccc1)[C@@H](O)C(=O)N[C@@H](CC(=O)O)C(=O)N[C@@H](C)C(=O)N[C@@H](CCC(=O)O)C(=O)N[C@@H](Cc1ccccc1)C(=O)O` (H-EVN[β3hPhe(2R-OH)]DAEF-OH), the inhibition falls from 67% to 24%.

`CC(C)C[C@H](NC(=O)[C@H](CC(N)=O)NC(=O)[C@@H](NC(=O)[C@@H](N)CCC(=O)O)C(C)C)[C@@H](O)C(=O)N[C@@H](CC(=O)O)C(=O)N[C@@H](C)C(=O)N[C@@H](CCC(=O)O)C(=O)N[C@@H](Cc1ccccc1)C(=O)O` (H-EVN[X1]DAEF-OH) was tested, and the inhibition was under 20%.
